Laboratory results as given in PubChem BioAssay (NCI).
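The compound was tested at five concentrations on cells cultured in 96-well plates, with a 48-hour exposure period. TGI marks complete inhibition of growth.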

system: MDA-N; assay: NCI tumour cell line growth inhibition, 48 h

Row | SMILES | TGI
1 | Cn1cnc([N+](=O)[O-])c1[Se]c1nc(N)nc2c1ncn2C1OC(CO)C(O)C1O (centres undefined) | > 100 µM
2 | Clc1ccc(-c2c(C3=NCCCN3)nnn2-c2ccc(Cl)cc2)cc1 | 39.3 µM
3 | COc1cc2c(c(OC)c1OC)-c1c(cc3c(c1OC)OCO3)C1OC2C(C)C1C (centres undefined) (tested in a mixture with another compound) | > 100 µM
4 | CO[C@H]1C=C[C@@]23c4cc5c(cc4CO[C@]2(O)CN(C)[C@H]3C1)OCO5 | > 100 µM
5 | CC(C)CCCC(=O)CCCCCCC(=O)CCN(O)C(=O)C(N)CO (centres undefined) | 49.4 µM
6 | O=C1OC(c2ccco2)=N/C1=C\c1cccc([N+](=O)[O-])c1 | > 100 µM
7 | Nc1ncn(C2CC(O)C(CO)O2)c(=O)n1 (centres undefined) | 7.2 µM
8 | C/C=C(\C)CC/C=C/CO[Si](C)(C)C(C)(C)C | > 100 µM
9 | CNc1nc(N)c(N=O)c(Nc2ccc(Br)cc2)n1 | > 100 µM
10 | CN1C(=O)c2ccccc2NC(=O)C12O[C@@H]2c1cccc(O)c1 (some centres undefined) | > 100 µM
11 | CS(=O)(=O)c1cc(=O)c2ccccc2s1 | 16.2 µM
12 | CSc1nc2cc(S(=O)(=O)N3CCCCC3)ccc2s1 | > 100 µM
13 | Cc1ccc2c(c1)CN(C(=O)CCC(=O)OCc1ccccc1)c1ccc(C)cc1CN2C(=O)CCC(=O)OCc1ccccc1 | > 100 µM
14 | O=c1[nH]c(=O)n(C2OC(CO)C(O)C(O)C2O)cc1F (centres undefined) | > 100 µM
15 | CCCCN1CSC(=S)N(Cc2ccccc2)C1 | > 100 µM
16 | CC(C)(C)c1ccc(O)c(CN(Cc2cc(C(C)(C)C)ccc2O)c2ccccc2)c1 | 30.4 µM

system: P388 leukemia; assay: NCI tumour cell line growth inhibition, 48 h

Row | SMILES | TGI
17 | Nc1ncn(C2CC(O)C(CO)O2)c(=O)n1 (centres undefined) | 142 µM

system: P388/ADR leukemia; assay: NCI tumour cell line growth inhibition, 48 h

Row | SMILES | TGI
18 | Nc1ncn(C2CC(O)C(CO)O2)c(=O)n1 (centres undefined) | 226 µM

system: SN12K1 renal; assay: NCI tumour cell line growth inhibition, 48 h

Row | SMILES | TGI
19 | Nc1ncn(C2CC(O)C(CO)O2)c(=O)n1 (centres undefined) | > 375 µM
